Results: patent US20080275248A1, “NOVEL 4BETA-AMINO PODOP[…] AS POTENTIAL ANTICANCER AGENTS AND A PROCESS FOR THE PREPARATION THEREOF” (priority 2007, published 2008)
≈ marks a conversion by molar mass, not a printed value. Where two headings read alike, the source gives them in different places.

Columns and labels:
Assay type in all cases: cell-based, human
Colo205 = experiment: SRB cytotoxicity assay, colon Colo205; details: for IC50: Homo sapiens, read-out: Activity status in terms of IC50 values, Colon Colo205
Description: (§1) Single cell suspension of the tumor cells grown in tissue culture were made, cells counted and cell count adjusted to 1×10 ^5 to 5×10^5 cells/ml. Ninety six (96) well plates were seeded with this cell suspension, each well receiving 100 μl of it. The plate was then be incubated at 37° C. temperature in CO2 incubator for 24 hours. Drugs were added at appropriate concentrations after 24-hour incubation followed by further incubation for 48 hours. Experiment was terminated by gently layering the cells in the wells with 30% TCA and plates were kept in refrigerator for 1 hour following which they were washed thoroughly with tap water, dried attained with 0.4% SRB in 1% acetic aid and finally, the bound SRB eluted with 10 mM tris. Absorbance was read at 540 nm, in the microtitre-plate reader. Optical density of drug-treated cells was compared with that of control cells and cell inhibition was calculated as percent values. Each compound was tested at 10, 20, 40 and 80 μg/ml in triplicate on human malignant cell lines.

DU145 = experiment: SRB cytotoxicity assay, prostate DU145; details: for IC50: Homo sapiens, read-out: Activity status in terms of IC50 values, Prostate DU145
Description: as §1

PC3 = experiment: SRB cytotoxicity assay, prostate PC3; details: for IC50: Homo sapiens, read-out: Activity status in terms of IC50 values, Prostate PC3
Description: as §1

Hop62 = experiment: SRB cytotoxicity assay, lung Hop62; details: for IC50: Homo sapiens, read-out: Activity status in terms of IC50 values, Lung Hop62
Description: as §1

MCF7 = experiment: SRB cytotoxicity assay, breast MCF7; details: for IC50: Homo sapiens, read-out: Activity status in terms of IC50 values, Breast MCF7
Description: as §1

Zr-75-1 = experiment: SRB cytotoxicity assay, breast Zr-75-1; details: for IC50: Homo sapiens, read-out: Activity status in terms of IC50 values, Breast Zr-75-1
Description: as §1

SiHa = experiment: SRB cytotoxicity assay, cervix SiHa; details: for IC50: Homo sapiens, read-out: Activity status in terms of IC50 values, Cervix SiHa
Description: as §1

HT1080 = experiment: SRB cytotoxicity assay, oral HT1080; details: for IC50: Homo sapiens, read-out: Activity status in terms of IC50 values, Oral HT1080
Description: as §1

DWD = experiment: SRB cytotoxicity assay, oral DWD; details: for IC50: Homo sapiens, read-out: Activity status in terms of IC50 values, Oral DWD
Description: as §1

[1] = MCF7 breast cancer cells, SRB assay, 48 hours drug incubation
[2] = Zr-75-1 breast cancer cells, SRB assay, 48 hours drug incubation
[3] = SiHa cervix cancer cells, SRB assay, 48 hours drug incubation
[4] = DWD oral cancer cells, SRB assay, 48 hours drug incubation
[5] = Colo205 colon cancer cells, SRB assay, 48 hours drug incubation
[6] = DU145 prostate cancer cells, SRB assay, 48 hours drug incubation
[7] = PC3 prostate cancer cells, SRB assay, 48 hours drug incubation
[8] = Hop62 lung cancer cells, SRB assay, 48 hours drug incubation
[9] = HT1080 oral cancer cells, SRB assay, 48 hours drug incubation

Compound	Activity status in terms of IC50 values, Colon Colo205 (Colo205; [5])	Activity status in terms of IC50 values, Prostate DU145 (DU145; [6])	Activity status in terms of IC50 values, Prostate PC3 (PC3; [7])	Activity status in terms of IC50 values, Lung Hop62 (Hop62; [8])	Activity status in terms of IC50 values, Breast MCF7 (MCF7; [1])	Activity status in terms of IC50 values, Breast Zr-75-1 (Zr-75-1; [2])	Activity status in terms of IC50 values, Cervix SiHa (SiHa; [3])	Activity status in terms of IC50 values, Oral HT1080 (HT1080; [9])	Activity status in terms of IC50 values, Oral DWD (DWD; [4])	other results
COc1cccc2c1C(=O)c1c(O)c3c(c(O)c1C2=O)C[C@@](O)(C(=O)CO)C[C@@H]3O[C@H]1C[C@H](N)[C@H](O)[C@H](C)O1 [ADR, Adriamycin, reference compound]	–	–	–	–	–	–	–	–	–	IC50 (Colo205; COLO 205, Colo205 colon cancer cells, SRB assay, 48 hours drug incubation): 5 µg/mL (≈ 9.2 µM); IC50 (DU145; DU-145, DU145 prostate cancer cells, SRB assay, 48 hours drug incubation): 6 µg/mL (≈ 11 µM); IC50 (PC3; PC-3, PC3 prostate cancer cells, SRB assay, 48 hours drug incubation): 5 µg/mL (≈ 9.2 µM); IC50 (Hop62; HOP-62, Hop62 lung cancer cells, SRB assay, 48 hours drug incubation): 5 µg/mL (≈ 9.2 µM); IC50 (MCF7; [1]): 5 µg/mL (≈ 9.2 µM); IC50 (Zr-75-1; [2]): 5 µg/mL (≈ 9.2 µM); IC50 (SiHa; [3]): 5 µg/mL (≈ 9.2 µM); IC50 (HT1080; HT-1080, HT1080 oral cancer cells, SRB assay, 48 hours drug incubation): 4 µg/mL (≈ 7.36 µM); IC50 (DWD; [4]): 2 µg/mL (≈ 3.68 µM)
COc1cc([C@@H]2c3cc4c(cc3[C@H](O)[C@H]3COC(=O)[C@H]23)OCO4)cc(OC)c1OC [Compound 1, Podophyllotoxin, reference compound]	–	–	–	–	–	–	–	–	–	IC50 (Colo205; COLO 205, 48 h): 5 µg/mL (≈ 12.1 µM); IC50 (DU145; DU-145, 48 h): 2 µg/mL (≈ 4.83 µM); IC50 (PC3; PC-3, 48 h): 8 µg/mL (≈ 19.3 µM); IC50 (Hop62; HOP-62, 48 h): 13 µg/mL (≈ 31.4 µM); IC50 (MCF7; MCF7, 48 h): 3 µg/mL (≈ 7.24 µM); IC50 (Zr-75-1; ZR-75-1, 48 h): 7 µg/mL (≈ 16.9 µM); IC50 (SiHa; SiHa, 48 h): 23 µg/mL (≈ 55.5 µM); IC50 (HT1080; HT-1080, 48 h): 8 µg/mL (≈ 19.3 µM); IC50 (DWD; DWD, 48 h): 6 µg/mL (≈ 14.5 µM)
COc1cc(C2c3cc4c(cc3C(Nc3ccc(-c5nc6ccccc6s5)cc3)C3COC(=O)C23)OCO4)cc(OC)c1OC (stereo not drawn) [Compound 4a, 4β-[4″-(1″,3″-benzothiazole-2″-yl)anilino]-4-desoxypodophyllotoxin]	8 µg/mL	>80 µg/mL	>80 µg/mL	>80 µg/mL	>80 µg/mL	>80 µg/mL	>80 µg/mL	8 µg/mL	22 µg/mL	–
COc1cc(C2c3cc4c(cc3C(Nc3ccc(-c5nc6ccccc6s5)cc3)C3COC(=O)C23)OCO4)cc(OC)c1O (stereo not drawn) [Compound 4b, 4′-O-Demethyl-4β-[4″-(1″,3″-benzothiazole-2″-yl)anilino]-4-desoxypodophyllotoxin]	8 µg/mL	13 µg/mL	>80 µg/mL	8 µg/mL	>80 µg/mL	>80 µg/mL	>80 µg/mL	>80 µg/mL	6 µg/mL	–
COc1cc(C2c3cc4c(cc3C(Nc3ccc(-c5nc6ccccc6s5)c(Cl)c3)C3COC(=O)C23)OCO4)cc(OC)c1OC (stereo not drawn) [Compound 4c, 4β-[4″-(1″,3″-Benzothiazole-2″-yl)-3″-chloroanilino]-4-desoxypodophyllotoxin]	7 µg/mL	>80 µg/mL	>80 µg/mL	15 µg/mL	>80 µg/mL	>80 µg/mL	>80 µg/mL	9 µg/mL	5 µg/mL	–
COc1cc(C2c3cc4c(cc3C(Nc3ccc(-c5nc6ccccc6s5)c(Cl)c3)C3COC(=O)C23)OCO4)cc(OC)c1O (stereo not drawn) [Compound 4d, 4′-O-Demethyl-4β-[4″-(1″,3″-benzothiazole-2″-yl)-3″-chloroanilino]-4-desoxypodophyllotoxin]	7 µg/mL	>80 µg/mL	>80 µg/mL	60 µg/mL	>80 µg/mL	>80 µg/mL	>80 µg/mL	9 µg/mL	7 µg/mL	–
COc1cc(C2c3cc4c(cc3C(Nc3ccc(-c5nc6ccc(F)cc6s5)cc3)C3COC(=O)C23)OCO4)cc(OC)c1OC (stereo not drawn) [Compound 4g, 4β-[4″-(6″-Fluoro-1″,3″-benzothiazole-2″-yl)anilino]-4-desoxypodophyllotoxin]	7 µg/mL	>80 µg/mL	>80 µg/mL	30 µg/mL	>80 µg/mL	>80 µg/mL	>80 µg/mL	9 µg/mL	5 µg/mL	–
COc1cc(C2c3cc4c(cc3C(Nc3ccc(-c5nc6ccc(F)cc6s5)cc3)C3COC(=O)C23)OCO4)cc(OC)c1O (stereo not drawn) [Compound 4h, 4′-O-Demethyl-4β-[4″-(6″-fluoro-1″,3″-benzothiazole-2″-yl)anilino]-4-desoxypodophyllotoxin]	8 µg/mL	>80 µg/mL	>80 µg/mL	10 µg/mL	>80 µg/mL	>80 µg/mL	>80 µg/mL	>80 µg/mL	9 µg/mL	–
